Test results taken from PubChem BioAssay (NCI).
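Where inhibition never reached the appropriate level, the endpoint shown equals the highest concentration tested. Otherwise, values were interpolated linearly from a five-concentration, 48-hour dose response in 96-well plates. TGI denotes the concentration required for complete inhibition of growth.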 Where a SMILES comes first, the peptide text is derived from it. [ ]: non-standard residue; d: D form. The star is where a group is joined. Iva = CC[C](C)(N)C(=O)O; Boc = CC(C)(C)OC(=O)*; X52 = C1CCC(=NO*)C1

Experiments:
Assay in all cases: DTP human tumour cell line panel, 48 h
A549 NSCLC = tested on: A549 NSCLC
NCI-H226 lung = tested on: NCI-H226 lung
HCT-15 colon = tested on: HCT-15 colon
EKVX NSCLC = tested on: EKVX NSCLC
UACC-62 melanoma = tested on: UACC-62 melanoma
COLO 205 colon = tested on: COLO 205 colon
UACC-257 melanoma = tested on: UACC-257 melanoma
MCF7 breast = tested on: MCF7 breast
OVCAR-3 ovarian = tested on: OVCAR-3 ovarian
NCI/ADR-RES ovarian = tested on: NCI/ADR-RES ovarian
CAKI-1 renal = tested on: CAKI-1 renal
SNB-75 CNS = tested on: SNB-75 CNS
NCI-H460 lung = tested on: NCI-H460 lung
SW-620 colon = tested on: SW-620 colon
RXF 393 renal = tested on: RXF 393 renal
HS 578T breast = tested on: HS 578T breast
SR leukemia = tested on: SR leukemia
DU-145 prostate = tested on: DU-145 prostate
HCT-116 colon = tested on: HCT-116 colon
A498 renal = tested on: A498 renal

| Compound | TGI (A549 NSCLC) | TGI (NCI-H226 lung) | TGI (HCT-15 colon) | TGI (EKVX NSCLC) | TGI (UACC-62 melanoma) | TGI (COLO 205 colon) | TGI (UACC-257 melanoma) | TGI (MCF7 breast) | TGI (OVCAR-3 ovarian) | TGI (NCI/ADR-RES ovarian) | TGI (CAKI-1 renal) | TGI (SNB-75 CNS) | TGI (NCI-H460 lung) | TGI (SW-620 colon) | TGI (RXF 393 renal) | TGI (HS 578T breast) | TGI (SR leukemia) | TGI (DU-145 prostate) | TGI (HCT-116 colon) | TGI (A498 renal) |
| --- | --- | --- | --- | --- | --- | --- | --- | --- | --- | --- | --- | --- | --- | --- | --- | --- | --- | --- | --- | --- |
| N#CC(C#N)=C/C=C(\Sc1c(Cl)c(Cl)nc(Cl)c1Cl)c1ccc(Cl)cc1 | > 100 µM | 67.9 µM | 30.1 µM | > 100 µM | 30 µM | 55.4 µM | 37.2 µM | > 100 µM | 27.3 µM | 36.1 µM | 34.2 µM | 44.9 µM | > 100 µM | 25.9 µM | 40 µM | 63.7 µM | 68.8 µM | 47.5 µM | 34.8 µM | – |
| CC1(C)CCc2c(c(N=Nc3ccc(S(N)(=O)=O)cc3)c3ccccc3c2O)O1 | 30.2 µM | 57.5 µM | 43.9 µM | 57.1 µM | 34.3 µM | 44.9 µM | 21.3 µM | 33.1 µM | 32.1 µM | 59.9 µM | 62.1 µM | 16.6 µM | 24.3 µM | > 100 µM | 24.6 µM | > 100 µM | 58.3 µM | 25 µM | 34.7 µM | 7.28 µM |
| COc1ccc2cc3[nH]c(=O)cc(O)c3cc2c1OC | > 100 µM | > 100 µM | > 100 µM | > 100 µM | > 100 µM | – | > 100 µM | – | > 100 µM | – | > 100 µM | > 100 µM | > 100 µM | > 100 µM | > 100 µM | – | > 100 µM | – | > 100 µM | > 100 µM |
| COc1cc(S(=O)(=O)Nc2nc(-c3ccc(N4C(=O)/C(=C/C=C/c5ccccc5)N=C4c4ccccc4)cc3)cs2)ccc1Cl | > 100 µM | > 100 µM | > 100 µM | – | > 100 µM | > 100 µM | > 100 µM | > 100 µM | > 100 µM | > 100 µM | > 100 µM | > 100 µM | > 100 µM | > 100 µM | > 100 µM | > 100 µM | > 100 µM | > 100 µM | > 100 µM | > 100 µM |
| C1CSCCSCCSCCSC1 | > 100 µM | > 100 µM | > 100 µM | > 100 µM | > 100 µM | > 100 µM | > 100 µM | > 100 µM | > 100 µM | > 100 µM | > 100 µM | > 100 µM | > 100 µM | > 100 µM | > 100 µM | > 100 µM | – | > 100 µM | > 100 µM | > 100 µM |
| Oc1c(Cl)c(Cl)c(O)c(CCNc2ccc3ncccc3c2)c1Cl | 47.3 µM | – | 30 µM | 36 µM | 23.8 µM | 89.2 µM | 43.6 µM | 30.8 µM | 35 µM | 33.9 µM | 25.4 µM | 33.4 µM | 41.8 µM | 95.6 µM | 37.7 µM | 13.1 µM | 28 µM | 60 µM | 41.9 µM | – |
| CCCCN1CN2C(=O)C(C(=O)OCC)C(=O)c3sc4nc(SC)nc1c4c32 (stereo unspecified) | 39.9 µM | 34 µM | 38 µM | 32.2 µM | 31.5 µM | 35.5 µM | 35.8 µM | 39.9 µM | 34.6 µM | 37.1 µM | 32.9 µM | 35.7 µM | 40.2 µM | 35.6 µM | 38.5 µM | 19.9 µM | 67 µM | 35.4 µM | 30.6 µM | 16.8 µM |
| COc1ccc(C2SCC(=O)N2NC(=O)c2ccncc2)cc1F (stereo unspecified) | > 100 µM | > 100 µM | > 100 µM | – | – | > 100 µM | > 100 µM | – | – | – | > 100 µM | > 100 µM | > 100 µM | > 100 µM | > 100 µM | – | > 100 µM | – | > 100 µM | > 100 µM |
| O=c1[nH]/c(=C/c2ccc(OCc3ccccc3)cn2)c(=O)[nH]/c1=C/c1ccc(F)cc1 | > 50 µM | > 44.3 µM | > 42.6 µM | > 93.6 µM | > 50.2 µM | 6.75 µM | 58.4 µM | > 100 µM | 1.42 µM | > 37 µM | > 100 µM | 4.73 µM | > 34.2 µM | > 44.6 µM | 1.95 µM | 15.7 µM | 1.29 µM | > 34.8 µM | > 100 µM | > 100 µM |
| Cc1c(S(=O)(=O)O)ccc(N=Nc2c(O)c(C(=O)O)cc3ccccc23)c1Cl | > 100 µM | > 100 µM | > 100 µM | > 100 µM | > 100 µM | > 100 µM | > 100 µM | > 100 µM | > 100 µM | > 100 µM | > 100 µM | > 100 µM | > 100 µM | > 100 µM | > 100 µM | > 100 µM | > 90.2 µM | > 100 µM | > 100 µM | > 100 µM |
| COc1ccc(-c2c3c(cc4cc5c(cc24)OCO5)C(=O)OC3)cc1OC | > 100 µM | 12.4 µM | 18.3 µM | > 75.6 µM | 1.84 µM | 11.4 µM | 5.05 µM | 31.4 µM | 18.8 µM | 22.4 µM | > 63.4 µM | 44.7 µM | 15.9 µM | 11.7 µM | 35.8 µM | 68.8 µM | 1.7 µM | > 100 µM | 12.1 µM | > 49.6 µM |
| COc1cc2cc3c4cc(OC)c(OC)cc4cc[n+]3cc2cc1OC | > 100 µM | > 100 µM | > 100 µM | > 100 µM | > 100 µM | > 100 µM | > 100 µM | > 31.6 µM | > 73.3 µM | > 100 µM | > 100 µM | > 100 µM | > 100 µM | > 100 µM | > 100 µM | – | – | – | > 100 µM | > 100 µM |
| CCC(C)(NC(=O)C(C)NC(=O)OC(C)(C)C)C(=O)NC(C)C(=O)NC(C)(CC)C(=O)ON=C1CCCC1 (stereo unspecified) (Boc-A[Iva]A[Iva]-X52; configuration not given here) | – | > 100 µM | > 100 µM | – | > 100 µM | > 100 µM | – | > 100 µM | > 100 µM | > 100 µM | > 100 µM | > 100 µM | > 100 µM | – | > 100 µM | > 100 µM | > 100 µM | > 100 µM | > 100 µM | > 100 µM |
| O=[N+]([O-])c1ccc(N=Nc2c(O)ccc3ccccc23)c([N+](=O)[O-])c1 | > 100 µM | > 100 µM | > 100 µM | > 100 µM | > 100 µM | > 100 µM | > 100 µM | > 100 µM | > 100 µM | > 100 µM | > 100 µM | > 100 µM | > 100 µM | > 100 µM | > 100 µM | > 100 µM | > 100 µM | > 100 µM | > 100 µM | > 100 µM |
| CCCSc1ccc2[nH]c(/N=C/c3ccccc3)cc2c1 | – | – | > 100 µM | 76.2 µM | 35 µM | 44.5 µM | 57 µM | – | 60.3 µM | 47.9 µM | > 100 µM | > 100 µM | – | > 100 µM | 42.7 µM | 62.1 µM | 27.8 µM | > 100 µM | 39.8 µM | 60.1 µM |
| CC(C)OP(=O)(OC(C)C)c1nc(-c2ccccc2)n(-c2ccc([N+](=O)[O-])cc2)n1 | > 100 µM | > 100 µM | > 100 µM | > 100 µM | > 100 µM | > 100 µM | > 100 µM | – | > 100 µM | – | > 100 µM | > 100 µM | > 100 µM | > 100 µM | – | – | – | – | > 100 µM | > 100 µM |
